Where “and” joins values, the source holds several entries; their conditions need not be identical. Equal values may be shown once.
Key:
[1] = test system: halofuginone-induced P. falciparum (elevated proline homeostasis); experiment: P. falciparum ABS growth assay, SYBR Green, 72 h, halofuginone-induced parasites; format: cell-based, Plasmodium falciparum; conditions: for parasite growth, replicate wells (Fig 1b): Halofuginone-Induced
Outline: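 Dd2-derived P. falciparum lines (HFGR-I, halofuginone-induced) at 1% parasitemia and 1% hematocrit in RPMI + 0.5% Albumax were exposed to compounds in triplicate dose-response for 72 h. Growth was read as SYBR Green 1 fluorescence, with 10 μM dihydroartemisinin as kill control and compound-free wells as growth control.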

HsProRS = HsProRS (Homo sapiens, UniProt P07814); experiment: TR-FRET ligand displacement assay with tracer MAT379 (CoraFluor-1-Halo and anti-His6 antibody formats); format: binding; design: made in house; host or cells: E. coli SoluBL-21; conditions: for TR-FRET dose-response, normalized signal (SI Fig 11): individual replicates; for normalized TR-FRET signal (dose-response replicates): SI Fig 15
HsProRS, sequence (P07814 996-1512): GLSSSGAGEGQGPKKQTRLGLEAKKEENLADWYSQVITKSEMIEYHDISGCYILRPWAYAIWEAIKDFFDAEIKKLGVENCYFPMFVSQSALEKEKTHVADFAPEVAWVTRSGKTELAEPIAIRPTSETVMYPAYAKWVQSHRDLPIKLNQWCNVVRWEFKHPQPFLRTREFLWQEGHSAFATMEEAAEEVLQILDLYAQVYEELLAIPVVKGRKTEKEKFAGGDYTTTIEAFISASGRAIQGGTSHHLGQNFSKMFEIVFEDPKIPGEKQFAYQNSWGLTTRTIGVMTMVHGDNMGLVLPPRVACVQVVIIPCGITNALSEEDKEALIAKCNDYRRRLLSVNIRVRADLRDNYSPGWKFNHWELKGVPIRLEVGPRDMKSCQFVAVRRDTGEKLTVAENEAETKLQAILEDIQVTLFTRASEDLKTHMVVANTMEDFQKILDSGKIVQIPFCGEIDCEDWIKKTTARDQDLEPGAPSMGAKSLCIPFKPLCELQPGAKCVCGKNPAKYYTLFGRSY

O=C(NC1Cc2ccccc2C1)c1nccnc1NC(=O)C1CCCCC1 [compound 2, reference compound]
parasite growth, replicate wells (Fig 1b) ([1]; Log[inhibitor] (M) -5.000): 1.00E+00 | parasite growth, replicate wells (Fig 1b) ([1]; Log[inhibitor] (M) -5.408): 2.00E+00 | parasite growth, replicate wells (Fig 1b) ([1]; Log[inhibitor] (M) -5.816): 2.40E+01 (2×) and 2.50E+01 | parasite growth, replicate wells (Fig 1b) ([1]; Log[inhibitor] (M) -6.222): 9.70E+01 and 1.00E+02 and 9.90E+01 | parasite growth, replicate wells (Fig 1b) ([1]; Log[inhibitor] (M) -6.638): 1.00E+02 and 1.02E+02 and 1.04E+02 | parasite growth, replicate wells (Fig 1b) ([1]; Log[inhibitor] (M) -7.046): 1.00E+02 and 9.10E+01 and 1.03E+02 | parasite growth, replicate wells (Fig 1b) ([1]; Log[inhibitor] (M) -7.450): 9.40E+01 and 9.70E+01 and 9.80E+01 | parasite growth, replicate wells (Fig 1b) ([1]; Log[inhibitor] (M) -7.854): 9.70E+01 (2×) and 1.00E+02 | parasite growth, replicate wells (Fig 1b) ([1]; Log[inhibitor] (M) -8.260): 1.00E+02 and 9.20E+01 and 9.80E+01 | parasite growth, replicate wells (Fig 1b) ([1]; Log[inhibitor] (M) -8.699): 9.70E+01 (2×) and 9.80E+01 | parasite growth, replicate wells (Fig 1b) ([1]; Log[inhibitor] (M) -9.000): 1.00E+02 and 9.60E+01 and 9.80E+01 | parasite growth, replicate wells (Fig 1b) ([1]; Log[inhibitor] (M) -9.488): 9.80E+01 (2×) and 9.90E+01 | dose-response value, Replicates 1-3 (SI Fig 2e) ([1]; Log[inhibitor] (M) -5.000): 1.0 | dose-response value, Replicates 1-3 (SI Fig 2e) ([1]; Log[inhibitor] (M) -5.408): 2.0 | Kd (HsProRS; HsProRS (KD [nM]) + ATP, 500 μM ATP, 250 nM MAT379): 954 nM | Kd (HsProRS; HsProRS (KD [nM]) −, absence of substrates, 250 nM MAT379): 371 nM | Kd (HsProRS; HsProRS - best Kd, SI Fig 16a, values on -log scale): 2.16 nM | normalized TR-FRET ligand displacement signal, dose-response replicates (SI Fig 6) (HsProRS; Log[inhibitor] (M) -5.000): 1.03E-01 and 7.51E-02 and 1.04E-01 | TR-FRET dose-response, normalized signal (SI Fig 11) (HsProRS; Log[inhibitor] (M) -5.000): 8.64E-04 and 3.42E-02 and 3.40E-02 | normalized TR-FRET ligand displacement signal, dose-response replicates (SI Fig 6) (HsProRS; Log[inhibitor] (M) -5.301): 1.90E-01 and 1.89E-01 and 1.86E-01 | TR-FRET dose-response, normalized signal (SI Fig 11) (HsProRS; Log[inhibitor] (M) -5.301): 7.30E-02 and 5.51E-02 and 3.97E-02 | normalized TR-FRET ligand displacement signal, dose-response replicates (SI Fig 6) (HsProRS; Log[inhibitor] (M) -5.602): 3.08E-01 and 2.37E-01 and 3.84E-01 | TR-FRET dose-response, normalized signal (SI Fig 11) (HsProRS; Log[inhibitor] (M) -5.602): 1.33E-01 and 1.75E-01 and 1.42E-01 | normalized TR-FRET ligand displacement signal, dose-response replicates (SI Fig 6) (HsProRS; Log[inhibitor] (M) -5.903): 6.24E-01 and 5.01E-01 and 5.97E-01 | TR-FRET dose-response, normalized signal (SI Fig 11) (HsProRS; Log[inhibitor] (M) -5.903): 2.61E-01 and 2.29E-01 and 2.70E-01 | normalized TR-FRET ligand displacement signal, dose-response replicates (SI Fig 6) (HsProRS; Log[inhibitor] (M) -6.204): 7.10E-01 and 7.38E-01 and 7.90E-01 | TR-FRET dose-response, normalized signal (SI Fig 11) (HsProRS; Log[inhibitor] (M) -6.204): 4.85E-01 and 4.00E-01 and 4.14E-01 | normalized TR-FRET ligand displacement signal, dose-response replicates (SI Fig 6) (HsProRS; Log[inhibitor] (M) -6.505): 9.53E-01 and 9.22E-01 and 9.58E-01 | TR-FRET dose-response, normalized signal (SI Fig 11) (HsProRS; Log[inhibitor] (M) -6.505): 5.65E-01 and 5.68E-01 and 5.80E-01 | normalized TR-FRET ligand displacement signal, dose-response replicates (SI Fig 6) (HsProRS; Log[inhibitor] (M) -6.806): 8.96E-01 and 9.59E-01 and 9.45E-01 | TR-FRET dose-response, normalized signal (SI Fig 11) (HsProRS; Log[inhibitor] (M) -6.806): 6.77E-01 and 7.64E-01 and 7.01E-01 | normalized TR-FRET ligand displacement signal, dose-response replicates (SI Fig 6) (HsProRS; Log[inhibitor] (M) -7.107): 1.10E+00 and 1.02E+00 and 1.05E+00 | TR-FRET dose-response, normalized signal (SI Fig 11) (HsProRS; Log[inhibitor] (M) -7.107): 8.54E-01 and 8.95E-01 and 8.55E-01 | normalized TR-FRET ligand displacement signal, dose-response replicates (SI Fig 6) (HsProRS; Log[inhibitor] (M) -7.408): 1.04E+00 | TR-FRET dose-response, normalized signal (SI Fig 11) (HsProRS; Log[inhibitor] (M) -7.408): 8.94E-01 and 8.78E-01 and 9.74E-01 | normalized TR-FRET ligand displacement signal, dose-response replicates (SI Fig 6) (HsProRS; Log[inhibitor] (M) -7.709): 9.76E-01 and 1.06E+00 and 1.03E+00 | TR-FRET dose-response, normalized signal (SI Fig 11) (HsProRS; Log[inhibitor] (M) -7.709): 9.26E-01 and 9.17E-01 and 9.24E-01 | normalized TR-FRET ligand displacement signal, dose-response replicates (SI Fig 6) (HsProRS; Log[inhibitor] (M) -8.010): 9.42E-01 and 1.05E+00 and 9.60E-01 | TR-FRET dose-response, normalized signal (SI Fig 11) (HsProRS; Log[inhibitor] (M) -8.010): 9.79E-01 and 9.27E-01 and 9.78E-01 | normalized TR-FRET ligand displacement signal, dose-response replicates (SI Fig 6) (HsProRS; Log[inhibitor] (M) -8.311): 1.02E+00 and 9.93E-01 and 1.06E+00 | TR-FRET dose-response, normalized signal (SI Fig 11) (HsProRS; Log[inhibitor] (M) -8.311): 9.15E-01 and 9.66E-01 and 9.82E-01 | normalized TR-FRET ligand displacement signal, dose-response replicates (SI Fig 6) (HsProRS; Log[inhibitor] (M) -8.612): 9.95E-01 and 1.01E+00 and 1.07E+00 | TR-FRET dose-response, normalized signal (SI Fig 11) (HsProRS; Log[inhibitor] (M) -8.612): 9.61E-01 and 9.59E-01 and 9.62E-01 | normalized TR-FRET ligand displacement signal, dose-response replicates (SI Fig 6) (HsProRS; Log[inhibitor] (M) -8.913): 1.02E+00 and 1.03E+00 and 9.75E-01 | TR-FRET dose-response, normalized signal (SI Fig 11) (HsProRS; Log[inhibitor] (M) -8.913): 9.90E-01 and 9.95E-01 and 9.69E-01 | normalized TR-FRET ligand displacement signal, dose-response replicates (SI Fig 6) (HsProRS; Log[inhibitor] (M) -9.214): 9.83E-01 and 1.03E+00 and 1.00E+00 | TR-FRET dose-response, normalized signal (SI Fig 11) (HsProRS; Log[inhibitor] (M) -9.214): 9.62E-01 and 1.02E+00 and 1.04E+00 | normalized TR-FRET signal (dose-response replicates) (HsProRS; Log[inhibitor] (M) -4.99976): 1.25E-01 and 2.68E-01 and 1.89E-01 | normalized TR-FRET signal (dose-response replicates) (HsProRS; Log[inhibitor] (M) -5.3009): 2.77E-01 and 4.13E-01 and 4.17E-01 | normalized TR-FRET signal (dose-response replicates) (HsProRS; Log[inhibitor] (M) -5.60199): 5.80E-01 and 6.20E-01 and 4.83E-01 | normalized TR-FRET signal (dose-response replicates) (HsProRS; Log[inhibitor] (M) -5.90248): 7.22E-01 and 7.32E-01 and 6.10E-01

From publication PMC9403976, “Elucidating the path to Plasmodium prolyl-tRNA synthetase inhibitors that overcome halofuginone resistance” (Nature Communications, 2022)
